# Tests used:
# 5-HT2 receptor = target: T1, 5-HT2 receptor (Rattus norvegicus, UniProt P14842); assay: 5-HT2 functional assay: phosphoinositide (PI) turnover assay; assay type: cell-based; conditions: for Emax: A7R5, read-out: Efficacy (Emax, %)
# T1 construct: A7r5 rat vascular smooth muscle cells; endogenous in cells; host or cells: A7r5 rat vascular smooth muscle cells
# Protocol: The relative agonist activity of serotonergic compounds at the 5-HT2 receptor can be determined in vitro using the ability of the compounds to stimulate the production of [^3H]inositol phosphates in [^3H]myo-inositol-labeled A7r5 rat vascular smooth muscle cells by their ability to activate the enzyme phospholipase C. These cells are grown in culture plates, maintained in a humidified atmosphere of 5% CO2 and 95% air and fed semi-weekly with Dulbecco's modified Eagle medium (DMEM) containing 4.5 g/L glucose and supplemented with 2 mM glutamine, 10 μg/ml gentamicin, and 10% fetal bovine serum. For the purpose of conducting the phosphoinositide (PI) turnover experiments, the A7r5 cells are cultured in 24-well plates as previously [J. Pharmacol. Expt. Ther. 286, 411 (1998)]. Confluent cells are exposed for 24-30 hrs to 1.5 μCi [^3H]-myo-inositol (18.3 Ci/mmol) in 0.5 mL of serum-free medium. Cells are then rinsed once with DMEM/F-12 containing 10 mM LiCl prior to incubation with the test agent (or solvent as the control) in 1.0 mL of the same medium for 1 hr at 37° C., after which the medium is aspirated and 1 mL of cold 0.1 M formic acid added to stop the reaction. The chromatographic separation of [^3H]-inositol phosphates ([^3H]-IPs) on an AG-1-X8 column is performed as previously described [J. Pharmacol. Expt. Ther. 286, 411 (1998)] with sequential washes with H2O and 50 mM ammonium formate, followed by elution of the total [^3H]-IPs fraction with 1.2 M ammonium formate containing 0.1 M formic acid. The eluate (4 mL) is collected, mixed with 15 ml scintillation fluid, and the total [^3H]-IPs determined by scintillation counting on a beta-counter. Concentration-response data are analyzed by the sigmoidal fit function of the Origin Scientific Graphics software (Microcal Software, Northampton, MA) to determine agonist potency (EC50 value) and efficacy (Emax).
# [1] = tested on: lasered (hypertensive) eyes of conscious cynomolgus monkeys; assay: Acute IOP response in lasered (hypertensive) eyes of conscious cynomolgus monkeys; assay type: in vivo, cynomolgus monkey; conditions: 300 μg topical, lasered eye
# Protocol: Intraocular pressure (IOP) was determined with an Alcon Pneumatonometer after light corneal anesthesia with 0.1% proparacaine. Eyes were washed with saline after each measurement. After a baseline IOP measurement, test compound was instilled in one 30 μL aliquot to the right eyes only of nine cynomolgus monkeys. Vehicle was instilled in the right eyes of six additional animals. Subsequent IOP measurements were taken at 1, 3, and 6 hours. A compound is considered efficacious in this model of ocular hypertension if there is a decrease in the baseline IOP of the lasered eye (O.D.) of at least 20% following topical administration.
# T1 sequence (P14842 whole entry): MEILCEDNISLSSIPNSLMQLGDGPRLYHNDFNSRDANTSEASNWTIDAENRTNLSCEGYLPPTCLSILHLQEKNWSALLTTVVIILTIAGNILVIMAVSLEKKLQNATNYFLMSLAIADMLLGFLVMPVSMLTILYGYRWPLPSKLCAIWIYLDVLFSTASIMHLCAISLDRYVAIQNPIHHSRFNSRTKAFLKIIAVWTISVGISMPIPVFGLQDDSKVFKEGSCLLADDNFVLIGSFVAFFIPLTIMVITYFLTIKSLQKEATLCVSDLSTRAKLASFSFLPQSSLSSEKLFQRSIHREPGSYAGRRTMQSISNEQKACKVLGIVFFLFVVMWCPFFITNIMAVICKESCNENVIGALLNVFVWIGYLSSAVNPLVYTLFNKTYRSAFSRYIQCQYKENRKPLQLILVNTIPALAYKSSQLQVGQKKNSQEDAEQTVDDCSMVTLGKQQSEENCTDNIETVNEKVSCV
compound,measurement,setting,value
"CC(N)Cn1nc2c3c(cc(O)cc31)CCC2.Cl.Cl (stereo not drawn) [Example 1, 2-(2-Aminopropyl)-2,6,7,8-tetrahydro-benzo[cd]indazol-4-ol dihydrochloride]",EC50,5-HT2 receptor,374 nM
same,Emax,5-HT2 receptor,85%
same,Percent Change in IOP ± SEM,[1]; 1 hour after dose,−5.9 ± 2.69%
same,Percent Change in IOP ± SEM,[1]; 3 hours after dose,−20.0 ± 3.54%
same,Percent Change in IOP ± SEM,[1]; 6 hours after dose,−21.6 ± 4.91%
same,melting point,,286 to 288 °C
"CC(N)Cn1nc2c3c(ccc(O)c31)CCC2.Cl.Cl (stereo not drawn) [Example 2, 2-(2-Aminopropyl)-2,6,7,8-tetrahydro-benzo[cd]indazol-3-ol dihydrochloride]",EC50,5-HT2 receptor,1440 nM
same,Emax,5-HT2 receptor,55%
same,melting point,,284 to 286 °C

# Source: patent US6960608B2, “Fused indazoles and indoles and their use for the treatment of glaucoma” (Alcon, Inc., priority 2001, dated 2005)
